Measured values reported in patent US20080114047A1 (priority 2003, published 2008).
Like-named read-outs stand apart in the source and are kept apart here.

Assays:
[1] = in vitro
[2] = tested on: L. donovani axenic amastigotes; assay: In vitro anti-leishmania activity (IC50 vs. L. donovani axenic amastigotes); assay type: cell-based; details: Leishmania donovani
[3] = tested on: Trypanosoma brucei rhodesiense; assay: Anti-protozoan data: T.b.r. IC50; assay type: cell-based; details: read-out: T.b.r. IC50
[4] = tested on: Plasmodium falciparum; assay: Anti-protozoan data: P. falcip. IC50; assay type: cell-based; details: read-out: P. falcip. IC50
[5] = Tables VI(a), VI(c), read-out: Leishmania donovani IC50
[6] = axenic amastigotes, Tables I-V, read-out: IC50 vs. L. donovani

Row | SMILES | melting point | IC50 [1] [µM] | IC50 [2, 5] [µM] | IC50 [2, 6] [µM] | IC50 ([3]; Tables VI(a), VI(c)) [µM] | IC50 ([4]; Tables VI(a), VI(c)) [µM] | IC50 ([2]; read-out: L. Donovani IC50) [µM] | IC50 [3] [µM] | IC50 [4] [µM]
1 | Cl.Cl.N=C(N)c1ccc2oc(CCCCc3cc4cc(C(=N)N)ccc4o3)cc2c1 [Compound 20, 2-(4-(5-Amidinobenzofuran-2-yl)butyl)benzofuran-5-carboxamidine dihydrochloride] | 325 to 327 °C (dec.) |  |  |  |  |  |  |  | 
2 | Cl.Cl.c1cc2oc(CCCCc3cc4cc(C5=NCCN5)ccc4o3)cc2cc1C1=NCCN1 [Compound 22, 4,5-Dihydro-2-(2-(4-(5-(4,5-dihydro-1H-imidazol-2-yl)benzofuran-2-yl)butyl)benzofuran-5-yl)-1H-imidazole dihydrochloride] | 323 to 324 °C (dec.) |  |  |  |  |  |  |  | 
3 | Cl.Cl.N=C(N)c1ccc2cc(CCCCc3cc4ccc(C(=N)N)cc4o3)oc2c1 [Compound 23, 2-(4-(6-Amidinobenzofuran-2-yl)butyl)benzofuran-6-carboxamidine dihydrochloride] | 328 to 330 °C (dec.) |  |  |  |  |  |  |  | 
4 | Cl.Cl.c1cc2cc(CCCCc3cc4ccc(C5=NCCN5)cc4o3)oc2cc1C1=NCCN1 [Compound 25, 4,5-Dihydro-2-(2-(4-(6-(4,5-dihydro-1H-imidazol-2-yl)benzofuran-2-yl)butyl)benzofuran-6-yl)-1H-imidazole dihydrochloride] | 343 to 345 °C (dec.) |  |  |  |  |  |  |  | 
5 | Cl.Cl.c1cc2oc(CCCCCc3cc4cc(C5=NCCN5)ccc4o3)cc2cc1C1=NCCN1 [Compound 28, 4,5-Dihydro-2-(2-(5-(5-(4,5-dihydro-1H-imidazol-2-yl)benzofuran-2-yl)pentyl)benzofuran-5-yl)-1H-imidazole dihydrochloride] | 155 to 157 °C |  |  |  |  |  |  |  | 
6 | Cl.Cl.N=C(N)c1ccc2cc(CCCCCc3cc4ccc(C(=N)N)cc4o3)oc2c1 [Compound 29, 2-(5-(6-Amidinobenzofuran-2-yl)pentyl)benzofuran-6-carboxamidine dihydrochloride] | 243 to 245 °C (dec.) |  |  |  |  |  |  |  | 
7 | Cl.Cl.c1cc2cc(CCCCCc3cc4ccc(C5=NCCN5)cc4o3)oc2cc1C1=NCCN1 [Compound 31, 4,5-Dihydro-2-(2-(5-(6-(4,5-dihydro-1H-imidazol-2-yl)benzofuran-2-yl)pentyl)benzofuran-6-yl)-1H-imidazole dihydrochloride] | 308 to 310 °C (dec.) |  |  |  |  |  |  |  | 
8 | CC(C)NC(=N)c1ccc(OCCCCOc2cccc(-c3cc4cc(C(=N)NC(C)C)ccc4o3)c2)cc1.Cl.Cl [Compound 36, 2-(3-(4-(4-(N-Isopropylcarbamimidoyl)phenoxy)butoxy)phenyl)-N-isopropylbenzofuran-5-carboxamidine dihydrochloride] | 207 to 210 °C | 36.5 | 11.2 ± 0.04 | 11.2 ± 0.04 | 0.537 | 0.269 |  |  | 
9 | Cl.Cl.c1cc(OCCCCOc2ccc(C3=NCCN3)cc2)cc(-c2cc3cc(C4=NCCN4)ccc3o2)c1 [Compound 37, 2-(2-(3-(4-(4-(4,5-Dihydro-1H-imidazol-2-yl)phenoxy)butoxy)phenyl)benzofuran-5-yl)-4,5-dihydro-1H-imidazole dihydrochloride] | 190 to 195 °C | 9.52 | 11.7 ± 0.14 | 11.7 ± 0.14 | 1.17 | 0.0986 |  |  | 
10 | Cl.Cl.N=C(N)c1ccc(OCCCCCCOc2cccc(-c3cc4cc(C(=N)N)ccc4o3)c2)cc1 [Compound 41, 2-(3-(6-(4-Carbamimidoylphenoxy)hexyloxy)phenyl)benzofuran-5-carboxamidine dihydrochloride] | 208 to 210 °C | 3.12 | 22.6 ± 0.23 | 22.6 ± 0.23 | 1.61 | 0.43 |  |  | 
11 | CC(C)NC(=N)c1ccc(OCCCCCCOc2cccc(-c3cc4cc(C(=N)NC(C)C)ccc4o3)c2)cc1.Cl.Cl [Compound 42, 2-(3-(6-(4-(N-Isopropylcarbamimidoyl)phenoxy)hexyloxy)phenyl)-N-isopropylbenzofuran-5-carboxamidine dihydrochloride] | 224 to 227 °C | 7.36 | 6.97 ± 1.39 | 6.97 ± 1.39 | 1.16 | 0.183 |  |  | 
12 | c1cc(OCCCCCCOc2ccc(C3=NCCN3)cc2)cc(-c2cc3cc(C4=NCCN4)ccc3o2)c1 [Compound 43, 2-(2-(3-(6-(4-(4,5-Dihydro-1H-imidazol-2-yl)phenoxy)hexyloxy)phenyl)benzofuran-5-yl)-4,5-dihydro-1H-imidazole] |  | 2.46 | 1.92 ± 0.19 |  | 0.996 | 0.0494 |  |  | 
13 | CC(C)NC(=N)c1ccc(OCCCCOc2cccc(-c3cc4ccc(C(=N)NC(C)C)cc4o3)c2)cc1.Cl.Cl [Compound 60, 2-(3-(4-(4-(N-Isopropylcarbamimidoyl)phenoxy)butoxy)phenyl)-N-isopropylbenzofuran-6-carboxamidine dihydrochloride] | 228 to 230 °C | 46.5 | 12.3 ± 0.09 | 12.3 ± 0.09 | 0.936 | 0.178 |  |  | 
14 | Cl.Cl.N=C(N)c1ccc(OCCCCCCOc2cccc(-c3cc4ccc(C(=N)N)cc4o3)c2)cc1 [Compound 65, 2-(3-(6-(4-Carbamimidoylphenoxy)hexyloxy)phenyl)benzofuran-6-carboxamidine dihydrochloride] | 268 to 271 °C | 4.33 | 23.6 ± 1.09 | 23.6 ± 1.09 | 1.22 | 0.479 |  |  | 
15 | Cl.Cl.N=C(N)c1ccc(OCCCCCCOc2ccc(-c3cc4ccc(C(=N)N)cc4o3)cc2)cc1 [Compound 77, 2-(4-(6-(4-Carbamimidoylphenoxy)hexyloxy)phenyl)benzofuran-6-carboxamidine dihydrochloride] | 310 to 311 °C | 8.02 |  |  | 0.416 | 0.28 |  |  | 
16 | N=C(N)c1cccc(-c2cc3ccc(C(=N)N)cc3o2)c1 [Compound 169, 2-(3-carbamimidoylphenyl)benzofuran-6-carboxamidine] |  | 131 |  | 14.4 |  |  | 14.4 | 0.021 | 0.0035
17 | CC(C)NC(=N)c1cccc(-c2cc3ccc(C(=N)NC(C)C)cc3o2)c1 [Compound 170, 2-(3-(N-isopropylcarbamimidoyl)phenyl)-N-isopropylbenzofuran-6-carboxamidine] |  | > 200 |  | 24.4 ± 0.1 |  |  | 24.4 ± 0.1 | 0.534 | 0.0586
18 | c1cc(C2=NCCN2)cc(-c2cc3ccc(C4=NCCN4)cc3o2)c1 [Compound 171, 2-(3-(6-(4,5-dihydro-1H-imidazol-2-yl)benzofuran-2-yl)phenyl)-4,5-dihydro-1H-imidazole] |  | 12.8 |  | > 100 |  |  | > 100 | 0.333 | 0.205
19 | N=C(N)c1ccc(-c2cc3ccc(C(=N)N)cc3o2)cc1 [Compound 172, 2-(4-carbamimidoylphenyl)benzofuran-6-carboxamidine] |  | 0.83 |  | 3.13 ± 0.15 |  |  | 3.13 ± 0.15 | 0.0069 | 0.0031
20 | CC(C)NC(=N)c1ccc(-c2cc3ccc(C(=N)NC(C)C)cc3o2)cc1 [Compound 173, 2-(4-(N-isopropylcarbamimidoyl)phenyl)-N-isopropylbenzofuran-6-carboxamidine] |  | > 199 |  | 11.8 ± 1.28 |  |  | 11.8 ± 1.28 | 0.148 | 0.0145
21 | c1cc(-c2cc3ccc(C4=NCCN4)cc3o2)ccc1C1=NCCN1 [Compound 174, 2-(4-(6-(4,5-dihydro-1H-imidazol-2-yl)benzofuran-2-yl)phenyl)-4,5-dihydro-1H-imidazole] |  | 4.52 |  | > 50 |  |  | > 50 | 0.319 | 0.109
22 | COc1cc(C(=N)N)cc2cc(-c3ccc(C(=N)N)cc3)oc12 [Compound 175, 2-(4-carbamimidoylphenyl)-7-methoxybenzofuran-5-carboxamidine] |  | 30.7 |  | 3 ± 0.56 |  |  | 3 ± 0.56 | 0.006 | 0.0056
23 | COc1cc(C2=NCCN2)cc2cc(-c3ccc(C4=NCCN4)cc3)oc12 [Compound 177, 2-(4-(5-(4,5-dihydro-1H-imidazol-2-yl)-7-methoxybenzofuran-2-yl)phenyl)-4,5-dihydro-1H-imidazole] |  | 19.9 |  | 4.45 ± 0.36 |  |  | 4.45 ± 0.36 | 0.124 | 0.0323
24 | N=C(NO)c1cccc(-c2cc3ccc(C(=N)NO)cc3o2)c1 [Compound 180, 2-(3-(N-Hydroxycarbamimidoyl)phenyl)-N-hydroxybenzofuran-6-carboxamidine] |  | 13.8 |  |  |  |  | 68.5 ± 6.16 | 37.8 | 1.85
25 | N=C(NO)c1ccc(-c2cc3ccc(C(=N)NO)cc3o2)cc1 [Compound 181, 2-(4-(N-Hydroxycarbamimidoyl)phenyl)-N-hydroxybenzofuran-6-carboxamidine] |  | > 222 |  |  |  |  | > 100 | 3.1 | 0.609
26 | N=C(NO)c1ccc(OCCCCCOc2ccc(-c3cc4cc(C(=N)NO)ccc4o3)cc2)cc1 [Compound 183, 2-(4-(5-(4-(N-Hydroxycarbamimidoyl)phenoxy)pentyloxy)phenyl)-N-hydroxybenzofuran-5-carboxamidine] |  | 8.28 |  |  | 1.55 | 0.291 |  |  | 
27 | N=C(NO)c1ccc2oc(CCc3cc4cc(C(=N)NO)ccc4o3)cc2c1 [Compound 190, 2-(2-(5-(N-Hydroxycarbamimidoyl)benzofuran-2-yl)ethyl)-N-hydroxybenzofuran-5-carboxamidine] |  | > 199 |  |  | 10.1 | 0.4 |  |  | 
